target: T1, cholesteryl ester transfer protein (CETP) (Homo sapiens, UniProt P11597); experiment: CETP activity SPA assay in the presence of plasma (source of CETP: human lipoprotein-deprived serum, LPDS); format: biochemical; conditions: CETP from human lipoprotein-deprived serum (LPDS); transfer of radiolabeled cholesteryl ester from HDL donor to biotin-labeled LDL acceptor particles
T1 construct: the source of CETP was human lipoprotein-deprived serum (LPDS); from tissue; host or cells: human lipoprotein-deprived serum (LPDS)
T1 sequence (P11597 18-493): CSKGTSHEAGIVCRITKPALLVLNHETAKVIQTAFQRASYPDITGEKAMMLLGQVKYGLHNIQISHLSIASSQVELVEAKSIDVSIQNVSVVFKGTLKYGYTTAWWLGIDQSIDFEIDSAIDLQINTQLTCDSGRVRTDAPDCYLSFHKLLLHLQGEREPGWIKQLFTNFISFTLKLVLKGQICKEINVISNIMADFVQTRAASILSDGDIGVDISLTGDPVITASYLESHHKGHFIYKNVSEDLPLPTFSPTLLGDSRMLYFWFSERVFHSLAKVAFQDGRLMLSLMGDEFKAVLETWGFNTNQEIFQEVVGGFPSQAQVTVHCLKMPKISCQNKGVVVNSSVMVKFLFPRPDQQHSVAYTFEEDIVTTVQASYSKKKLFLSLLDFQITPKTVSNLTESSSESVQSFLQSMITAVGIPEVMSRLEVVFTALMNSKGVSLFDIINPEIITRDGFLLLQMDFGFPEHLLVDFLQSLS
Experimental: Activity of CETP inhibitors was determined using a buffer assay system. Partially purified CETP transferred radiolabeled cholesteryl ester from HDL donor particles to biotin-labeled LDL acceptor particles. The reaction was stopped by addition of streptavidin-coupled scintillation proximity assay (SPA) beads. These beads captured the biotinylated acceptor particles and transferred radioactivity was measured. The assay system was purchased and performed according to manufacturer's recommendations (Amersham Biosciences). Inhibitory activity of compounds was determined as percentage of positive control activity containing CETP together with donor and acceptor particles. Serial dilution of compounds was performed in order to determine the IC50 values.
Activity of the compounds was subsequently measured in the presence of plasma using the same assay as described above except that the source of CETP was human lipoprotein-deprived serum (LPDS). Inhibitory activity of compounds was determined as percentage of positive control activity containing all the assay components except compound. Serial dilution of compounds was performed in order to determine the IC50 values.

Row | IC50 | SMILES
1 | 66.8 µM | CC(C)(C)c1ccc(CN(CCc2ccc(Cl)c(Cl)c2)C(=O)c2cnccc2Cl)cc1 [Compound B3, N-(4-tert-Butyl-benzyl)-4-chloro-N-[2-(3,4-dichloro-phenyl)-ethyl]-nicotinamide]
2 | 1.25 µM | O=C(c1cc(Cl)cc(Cl)c1)N(CCc1ccc(Cl)cc1)Cc1ccc(C(F)(C(F)(F)F)C(F)(F)F)cc1 [Compound B104, 3,5-Dichloro-N-[2-(4-chloro-phenyl)-ethyl]-N-[4-(1,2,2,2-tetrafluoro-1-trifluoromethyl-ethyl)-benzyl]-benzamide]
3 | 0.409 µM | CCC(C)(C)c1ccc(CN(CCc2ccc(Cl)cc2)C(=O)c2cc(Cl)cc(Cl)c2)cc1 [Compound B108, 3,5-Dichloro-N-[2-(4-chloro-phenyl)-ethyl]-N-[4-(1,1-dimethyl-propyl)-benzyl]-benzamide]

— patent US7745477B2, “Heteroaryl and benzyl amide compounds” (Hoffman-La Roche Inc., priority 2006, dated 2010)
